According to paper PMC9939733 (The Journal of Biological Chemistry, 2023):
Where a chain is given by its changes, count along the chain named.

Target: T1, R140Q IDH2 (Homo sapiens, UniProt P48735, R140Q)
T1 construct: made in house; host or cells: Sf21 insect cells (cell pellets prepared at Evotec)
T1 sequence (P48735 40-452 R140Q): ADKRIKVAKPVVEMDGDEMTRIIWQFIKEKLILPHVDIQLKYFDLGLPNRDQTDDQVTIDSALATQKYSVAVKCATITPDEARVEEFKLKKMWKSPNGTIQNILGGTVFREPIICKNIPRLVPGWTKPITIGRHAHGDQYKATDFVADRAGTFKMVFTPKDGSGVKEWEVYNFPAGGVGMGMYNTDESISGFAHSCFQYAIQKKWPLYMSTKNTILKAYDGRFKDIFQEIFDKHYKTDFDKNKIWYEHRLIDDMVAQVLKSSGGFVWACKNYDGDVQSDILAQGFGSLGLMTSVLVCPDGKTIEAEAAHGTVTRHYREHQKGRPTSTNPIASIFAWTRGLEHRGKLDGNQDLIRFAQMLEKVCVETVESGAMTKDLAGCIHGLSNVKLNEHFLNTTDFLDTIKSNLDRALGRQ
Assay: Absorbance assay (NADPH consumption), substrate turnover in the absence of 2OG
Format: biochemical
Conditions: not given
Experimental: (§1) Compounds were dispensed using a CyBio SDW-CW CyBi-Well Simultaneous Pipettor and assay started using a ThermoFisher Multidrop Combi reagent dispenser.
(§2) Reactions were performed as technical quadruplicates.

Row | Structure (SMILES) | activity [%] (%-substrate conversion after 20 min incubation)
1 | O=C(O)CC(O)(CC(=O)O)C(=O)O [DL-citric acid] | < 10
2 | O=C(O)/C=C(/CC(=O)O)C(=O)O [cis-aconitic acid] | < 10

Same assay, conditions: no 2OG; 6.0 mM test compound, 0.03 μM R140Q IDH2, 50 μM NADPH; 2OG = 100

Row | Structure (SMILES) | activity [%] (%-substrate conversion after 20 min incubation)
3 | COC(=O)CCC(=O)C(=O)OC [dimethyl 2-oxoglutaric acid] | < 10
4 | N[C@@H](CCCC(=O)O)C(=O)O [L-2-aminoadipic acid] | < 10
5 | NC(CCC(=O)O)C(=O)O (racemic) [DL-glutamic acid] | < 10
6 | O=C(O)C(=O)CCc1ccccc1 [2-oxo-4-phenylbutanoic acid] | < 10
7 | O=C(O)C(=O)CC(O)C(=O)O (racemic) [DL-4-hydroxy-2-oxoglutaric acid] | 27 ± 3
8 | CC(C)CC(=O)C(=O)O [α-ketoisocaproic acid] | < 10
9 | COC(=O)CC(C)C(=O)OC (racemic) [DL-dimethyl 2-methylsuccinate] | < 10
10 | O=C(O)CC(=O)CC(=O)O [3-oxoglutaric acid] | < 10
11 | O=C[C@H](O)[C@@H](O)[C@H](O)[C@H](O)C(=O)O [D-glucuronic acid] | < 10

Same assay, conditions: no 2OG; 6.0 mM test compound, 0.03 μM R140Q IDH2, 50 μM NADPH; 2OG = 100; listed as DL-4-hydroxy-2OG

Row | Structure (SMILES) | activity [%] (%-substrate conversion after 20 min incubation)
12 | O=C(O)C(=O)CC(O)C(=O)O (racemic) [DL-4-hydroxy-2-oxoglutaric acid] | ~20

Target: T2, R172K IDH2 (Homo sapiens, UniProt P48735, R172K)
T2 construct: made in house; host or cells: Sf21 insect cells (cell pellets prepared at Evotec)
T2 sequence (P48735 40-452 R172K): T1 sequence (P48735 40-452 R140Q) with Q101R, R133K
Assay: as above
Format: biochemical
Conditions: not given
Experimental: as §1, §2

Row | Structure (SMILES) | activity [%] (%-substrate conversion after 20 min incubation)
13 | O=C(O)CC(O)(CC(=O)O)C(=O)O [DL-citric acid] | < 10
14 | O=C(O)/C=C(/CC(=O)O)C(=O)O [cis-aconitic acid] | < 10

Same assay, conditions: no 2OG; 1.0 mM test compound, 0.03 μM R172K IDH2, 50 μM NADPH; 2OG = 100

Row | Structure (SMILES) | activity [%] (%-substrate conversion after 20 min incubation)
15 | COC(=O)CCC(=O)C(=O)OC [dimethyl 2-oxoglutaric acid] | < 10
16 | N[C@@H](CCCC(=O)O)C(=O)O [L-2-aminoadipic acid] | < 10
17 | NC(CCC(=O)O)C(=O)O (racemic) [DL-glutamic acid] | < 10
18 | O=C(O)C(=O)CCc1ccccc1 [2-oxo-4-phenylbutanoic acid] | < 10
19 | O=C(O)C(=O)CC(O)C(=O)O (racemic) [DL-4-hydroxy-2-oxoglutaric acid] | < 10
20 | CC(C)CC(=O)C(=O)O [α-ketoisocaproic acid] | < 10
21 | COC(=O)CC(C)C(=O)OC (racemic) [DL-dimethyl 2-methylsuccinate] | < 10
22 | O=C(O)CC(=O)CC(=O)O [3-oxoglutaric acid] | < 10
23 | O=C[C@H](O)[C@@H](O)[C@H](O)[C@H](O)C(=O)O [D-glucuronic acid] | < 10

Target: T1, R140Q IDH2
Assay: Absorbance assay, variant activity in the presence of equimolar 2OG (inhibition screen)
Format: biochemical
Conditions: not given
Experimental: as §1, §2

Row | Structure (SMILES) | activity [%] (%-substrate conversion after 20 min incubation)
24 | O=C(O)CC(O)(CC(=O)O)C(=O)O [DL-citric acid] | 122 ± 14
25 | O=C(O)/C=C(/CC(=O)O)C(=O)O [cis-aconitic acid] | 119 ± 12

Same assay, conditions: 6.0 mM 2OG and 6.0 mM test compound, 0.03 μM R140Q IDH2, 50 μM NADPH

Row | Structure (SMILES) | activity [%] (%-substrate conversion after 20 min incubation)
26 | COC(=O)CCC(=O)C(=O)OC [dimethyl 2-oxoglutaric acid] | 124 ± 12
27 | N[C@@H](CCCC(=O)O)C(=O)O [L-2-aminoadipic acid] | 82 ± 4
28 | NC(CCC(=O)O)C(=O)O (racemic) [DL-glutamic acid] | 94 ± 9
29 | O=C(O)C(=O)CCc1ccccc1 [2-oxo-4-phenylbutanoic acid] | 98 ± 8
30 | O=C(O)C(=O)CC(O)C(=O)O (racemic) [DL-4-hydroxy-2-oxoglutaric acid] | 124 ± 8
31 | CC(C)CC(=O)C(=O)O [α-ketoisocaproic acid] | 106 ± 6
32 | COC(=O)CC(C)C(=O)OC (racemic) [DL-dimethyl 2-methylsuccinate] | 116 ± 4
33 | O=C(O)CC(=O)CC(=O)O [3-oxoglutaric acid] | 109 ± 3
34 | O=C[C@H](O)[C@@H](O)[C@H](O)[C@H](O)C(=O)O [D-glucuronic acid] | 112 ± 7

Target: T2, R172K IDH2
Assay: as above
Format: biochemical
Conditions: not given
Experimental: as §1, §2

Row | Structure (SMILES) | activity [%] (%-substrate conversion after 20 min incubation)
35 | O=C(O)CC(O)(CC(=O)O)C(=O)O [DL-citric acid] | 94 ± 4
36 | O=C(O)/C=C(/CC(=O)O)C(=O)O [cis-aconitic acid] | 99 ± 7

Same assay, conditions: 1.0 mM 2OG and 1.0 mM test compound, 0.03 μM R172K IDH2, 50 μM NADPH

Row | Structure (SMILES) | activity [%] (%-substrate conversion after 20 min incubation)
37 | COC(=O)CCC(=O)C(=O)OC [dimethyl 2-oxoglutaric acid] | 100 ± 9
38 | N[C@@H](CCCC(=O)O)C(=O)O [L-2-aminoadipic acid] | 104 ± 1
39 | NC(CCC(=O)O)C(=O)O (racemic) [DL-glutamic acid] | 93 ± 5
40 | O=C(O)C(=O)CCc1ccccc1 [2-oxo-4-phenylbutanoic acid] | 96 ± 1
41 | O=C(O)C(=O)CC(O)C(=O)O (racemic) [DL-4-hydroxy-2-oxoglutaric acid] | 98 ± 3
42 | CC(C)CC(=O)C(=O)O [α-ketoisocaproic acid] | 104 ± 2
43 | COC(=O)CC(C)C(=O)OC (racemic) [DL-dimethyl 2-methylsuccinate] | 91 ± 4
44 | O=C(O)CC(=O)CC(=O)O [3-oxoglutaric acid] | 100 ± 4
45 | O=C[C@H](O)[C@@H](O)[C@H](O)[C@H](O)C(=O)O [D-glucuronic acid] | 101 ± 2

Target: T3, WT IDH1 (Homo sapiens, UniProt O75874)
T3 construct: made in house; host or cells: Escherichia coli BL21(DE3) pLyS
T3 sequence (O75874 whole entry): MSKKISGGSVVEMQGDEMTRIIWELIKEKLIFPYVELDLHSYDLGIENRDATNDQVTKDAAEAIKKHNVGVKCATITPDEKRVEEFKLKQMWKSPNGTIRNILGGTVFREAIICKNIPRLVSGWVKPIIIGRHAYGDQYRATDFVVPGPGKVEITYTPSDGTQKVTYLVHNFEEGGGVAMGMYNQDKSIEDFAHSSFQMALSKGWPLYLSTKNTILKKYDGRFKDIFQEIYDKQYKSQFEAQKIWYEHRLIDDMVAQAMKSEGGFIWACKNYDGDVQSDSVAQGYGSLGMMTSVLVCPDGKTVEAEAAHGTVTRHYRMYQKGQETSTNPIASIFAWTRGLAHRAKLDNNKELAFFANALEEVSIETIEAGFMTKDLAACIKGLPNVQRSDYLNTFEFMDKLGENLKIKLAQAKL
Assay: Absorbance assay, WT activity in the presence of equimolar DL-isocitrate (inhibition)
Format: biochemical
Conditions: not given
Experimental: as §1, §2

Row | Structure (SMILES) | activity [%] (%-substrate conversion after 20 min incubation)
46 | O=C(O)CC(O)(CC(=O)O)C(=O)O [DL-citric acid] | 103 ± 3
47 | O=C(O)/C=C(/CC(=O)O)C(=O)O [cis-aconitic acid] | 101 ± 2

Same assay, conditions: […] isocitrate and […] test compound, 75 μM NADP+, 2.0 nM WT IDH1

Row | Structure (SMILES) | activity [%] (%-substrate conversion after 20 min incubation)
48 | COC(=O)CCC(=O)C(=O)OC [dimethyl 2-oxoglutaric acid] | 98 ± 1
49 | N[C@@H](CCCC(=O)O)C(=O)O [L-2-aminoadipic acid] | 108 ± 4
50 | NC(CCC(=O)O)C(=O)O (racemic) [DL-glutamic acid] | 94 ± 7
51 | O=C(O)C(=O)CCc1ccccc1 [2-oxo-4-phenylbutanoic acid] | 94 ± 2
52 | O=C(O)C(=O)CC(O)C(=O)O (racemic) [DL-4-hydroxy-2-oxoglutaric acid] | 89 ± 1
53 | CC(C)CC(=O)C(=O)O [α-ketoisocaproic acid] | 102 ± 2
54 | COC(=O)CC(C)C(=O)OC (racemic) [DL-dimethyl 2-methylsuccinate] | 103 ± 1
55 | O=C(O)CC(=O)CC(=O)O [3-oxoglutaric acid] | 103 ± 3
56 | O=C[C@H](O)[C@@H](O)[C@H](O)[C@H](O)C(=O)O [D-glucuronic acid] | 106 ± 2

Target: T4, WT IDH2 (Homo sapiens, UniProt P48735)
T4 construct: made in house; host or cells: Sf21 insect cells (cell pellets prepared at Evotec)
T4 sequence (P48735 40-452): T1 sequence (P48735 40-452 R140Q) with Q101R
Assay: as above
Format: biochemical
Conditions: not given
Experimental: as §1, §2

Row | Structure (SMILES) | activity [%] (%-substrate conversion after 20 min incubation)
57 | O=C(O)CC(O)(CC(=O)O)C(=O)O [DL-citric acid] | 101 ± 3

Same assay, conditions: […] isocitrate and […] test compound, 75 μM NADP+, 2.0 nM WT IDH2

Row | Structure (SMILES) | activity [%] (%-substrate conversion after 20 min incubation)
58 | COC(=O)CCC(=O)C(=O)OC [dimethyl 2-oxoglutaric acid] | 97 ± 2
59 | N[C@@H](CCCC(=O)O)C(=O)O [L-2-aminoadipic acid] | 101 ± 5
60 | O=C(O)C(=O)CCc1ccccc1 [2-oxo-4-phenylbutanoic acid] | 96 ± 6
61 | O=C(O)C(=O)CC(O)C(=O)O (racemic) [DL-4-hydroxy-2-oxoglutaric acid] | 87 ± 1
62 | CC(C)CC(=O)C(=O)O [α-ketoisocaproic acid] | 102 ± 4
63 | COC(=O)CC(C)C(=O)OC (racemic) [DL-dimethyl 2-methylsuccinate] | 100 ± 2

Target: T5, R132H IDH1 (Homo sapiens, UniProt O75874, R132H)
T5 sequence (O75874 whole entry R132H): as the sequence (O75874 whole entry) above, with R132H counted along it
Assay: Absorbance assay (NADPH consumption), substrate turnover in the absence of 2OG
Format: biochemical
Set-up: made in house; host or cells: Escherichia coli BL21(DE3) pLyS
Conditions: not given
Experimental: as §1, §2

Row | Structure (SMILES) | activity [%] (%-substrate conversion after 20 min incubation)
64 | O=C(O)CC(O)(CC(=O)O)C(=O)O [DL-citric acid] | < 10
65 | O=C(O)/C=C(/CC(=O)O)C(=O)O [cis-aconitic acid] | < 10

Same assay, conditions: no 2OG; […] test compound, 0.03 μM R132H IDH1, 50 μM NADPH; 2OG = 100

Row | Structure (SMILES) | activity [%] (%-substrate conversion after 20 min incubation)
66 | COC(=O)CCC(=O)C(=O)OC [dimethyl 2-oxoglutaric acid] | < 10
67 | N[C@@H](CCCC(=O)O)C(=O)O [L-2-aminoadipic acid] | < 10
68 | NC(CCC(=O)O)C(=O)O (racemic) [DL-glutamic acid] | < 10
69 | O=C(O)C(=O)CCc1ccccc1 [2-oxo-4-phenylbutanoic acid] | < 10
70 | O=C(O)C(=O)CC(O)C(=O)O (racemic) [DL-4-hydroxy-2-oxoglutaric acid] | < 10
71 | CC(C)CC(=O)C(=O)O [α-ketoisocaproic acid] | < 10
72 | COC(=O)CC(C)C(=O)OC (racemic) [DL-dimethyl 2-methylsuccinate] | < 10
73 | O=C(O)CC(=O)CC(=O)O [3-oxoglutaric acid] | < 10
74 | O=C[C@H](O)[C@@H](O)[C@H](O)[C@H](O)C(=O)O [D-glucuronic acid] | < 10

Target: T5, R132H IDH1
Assay: Absorbance assay, variant activity in the presence of equimolar 2OG (inhibition screen)
Format: biochemical
Set-up: made in house; host or cells: Escherichia coli BL21(DE3) pLyS
Conditions: not given
Experimental: as §1, §2

Row | Structure (SMILES) | activity [%] (%-substrate conversion after 20 min incubation)
75 | O=C(O)CC(O)(CC(=O)O)C(=O)O [DL-citric acid] | 115 ± 25
76 | O=C(O)/C=C(/CC(=O)O)C(=O)O [cis-aconitic acid] | 100 ± 2

Same assay, conditions: […] 2OG and […] test compound, 0.03 μM R132H IDH1, 50 μM NADPH

Row | Structure (SMILES) | activity [%] (%-substrate conversion after 20 min incubation)
77 | COC(=O)CCC(=O)C(=O)OC [dimethyl 2-oxoglutaric acid] | 95 ± 3
78 | N[C@@H](CCCC(=O)O)C(=O)O [L-2-aminoadipic acid] | 104 ± 7
79 | NC(CCC(=O)O)C(=O)O (racemic) [DL-glutamic acid] | 83 ± 5
80 | O=C(O)C(=O)CCc1ccccc1 [2-oxo-4-phenylbutanoic acid] | 90 ± 3
81 | O=C(O)C(=O)CC(O)C(=O)O (racemic) [DL-4-hydroxy-2-oxoglutaric acid] | 82 ± 5
82 | CC(C)CC(=O)C(=O)O [α-ketoisocaproic acid] | 99 ± 2
83 | COC(=O)CC(C)C(=O)OC (racemic) [DL-dimethyl 2-methylsuccinate] | 104 ± 2
84 | O=C(O)CC(=O)CC(=O)O [3-oxoglutaric acid] | 95 ± 2
85 | O=C[C@H](O)[C@@H](O)[C@H](O)[C@H](O)C(=O)O [D-glucuronic acid] | 104 ± 4
